How the values were obtained:
Assay type in all cases: functional
MDA-MB-435 = assay: Growth inhibition of human MDA-MB-435 cells after 48 hrs by sulforhodamine B assay; details: MDA-MB-435, 48 h; for CC50: read-out: LC50 (the source's name)
NCI-H226 = assay: Growth inhibition of human NCI-H226 cells assessed as cell growth at 10 uM after 48 hrs by sulforhodamine B assay relative to control; details: NCI-H226, 48 h, read-out: Activity
HOP-62 = assay: Growth inhibition of human HOP62 cells assessed as cell growth at 10 uM after 48 hrs by sulforhodamine B assay relative to control; details: HOP-62, 48 h, read-out: Activity
A549 = assay: Growth inhibition of human A549/ATCC cells assessed as cell growth at 10 uM after 48 hrs by sulforhodamine B assay relative to control; details: A549, 48 h, read-out: Activity
SW-620 [1] = assay: Growth inhibition of human SW620 cells assessed as cell growth at 10 uM after 48 hrs by sulforhodamine B assay relative to control; details: SW-620, 48 h, read-out: Activity
PC-3 = assay: Growth inhibition of human PC3 cells after 48 hrs by sulforhodamine B assay; details: PC-3, 48 h
NCI-H322M = assay: Growth inhibition of human NCI-H322M cells assessed as cell growth at 10 uM after 48 hrs by sulforhodamine B assay relative to control; details: read-out: Activity
MDA-MB-231 = assay: Growth inhibition of human MDA-MB-231 cells assessed as cell growth at 10 uM after 48 hrs by sulforhodamine B assay relative to control; details: MDA-MB-231, 48 h, read-out: Activity
MCF7 = assay: Growth inhibition of human MCF7 cells assessed as cell growth at 10 uM after 48 hrs by sulforhodamine B assay relative to control; details: MCF7, 48 h, read-out: Activity
SK-MEL-2 = assay: Growth inhibition of human SK-MEL-2 cells after 48 hrs by sulforhodamine B assay; details: SK-MEL-2, 48 h
HCT-15 = assay: Growth inhibition of human HCT15 cells after 48 hrs by sulforhodamine B assay; details: HCT-15, 48 h
OVCAR-3 = assay: Growth inhibition of human OVCAR3 cells assessed as cell growth at 10 uM after 48 hrs by sulforhodamine B assay relative to control; details: OVCAR-3, 48 h, read-out: Activity
COLO 205 = assay: Growth inhibition of human COLO205 cells assessed as cell growth at 10 uM after 48 hrs by sulforhodamine B assay relative to control; details: COLO 205, 48 h, read-out: Activity
SW-620 [2] = assay: Growth inhibition of human SW620 cells after 48 hrs by sulforhodamine B assay; details: SW-620, 48 h
U-251 [3] = assay: Growth inhibition of human U251 cells after 48 hrs by sulforhodamine B assay; details: U-251, 48 h; for CC50: read-out: LC50 (the source's name)
HCT-116 = assay: Growth inhibition of human HCT116 cells assessed as cell growth at 10 uM after 48 hrs by sulforhodamine B assay relative to control; details: HCT-116, 48 h, read-out: Activity
SNB-75 = assay: Growth inhibition of human SNB75 cells after 48 hrs by sulforhodamine B assay; details: SNB-75, 48 h
SN12C = assay: Growth inhibition of human SN12C cells assessed as cell growth at 10 uM after 48 hrs by sulforhodamine B assay relative to control; details: read-out: Activity
MOLT-4 = assay: Growth inhibition of human MOLT4 cells assessed as cell growth at 10 uM after 48 hrs by sulforhodamine B assay relative to control; details: MOLT-4, 48 h, read-out: Activity
CAKI-1 = assay: Growth inhibition of human CAKI-1 cells after 48 hrs by sulforhodamine B assay; details: CAKI-1, 48 h
CCRF-CEM = assay: Growth inhibition of human CCRF-CEM cells assessed as cell growth at 10 uM after 48 hrs by sulforhodamine B assay relative to control; details: read-out: Activity
OVCAR-5 = assay: Growth inhibition of human OVCAR5 cells assessed as cell growth at 10 uM after 48 hrs by sulforhodamine B assay relative to control; details: OVCAR-5, 48 h, read-out: Activity
LOX IMVI = assay: Growth inhibition of human LOXIMVI cells after 48 hrs by sulforhodamine B assay
ACHN = assay: Growth inhibition of human ACHN cells after 48 hrs by sulforhodamine B assay
MDA-MB-468 = assay: Growth inhibition of human MDA-MB-468 cells assessed as cell growth at 10 uM after 48 hrs by sulforhodamine B assay relative to control; details: MDA-MB-468, 48 h, read-out: Activity
U-251 [4] = assay: Growth inhibition of human U251 cells assessed as cell growth at 10 uM after 48 hrs by sulforhodamine B assay relative to control; details: U-251, 48 h, read-out: Activity
RPMI-8226 = assay: Growth inhibition of human RPMI8226 cells assessed as cell growth at 10 uM after 48 hrs by sulforhodamine B assay relative to control; details: RPMI-8226, 48 h, read-out: Activity
DU-145 = assay: Growth inhibition of human DU145 cells after 48 hrs by sulforhodamine B assay; details: DU-145, 48 h; for CC50: read-out: LC50 (the source's name)
OVCAR-4 = assay: Growth inhibition of human OVCAR4 cells after 48 hrs by sulforhodamine B assay; details: OVCAR-4, 48 h
TK-10 = assay: Growth inhibition of human TK10 cells after 48 hrs by sulforhodamine B assay; details: TK-10, 48 h; for CC50: read-out: LC50 (the source's name)
UO-31 = assay: Growth inhibition of human UO31 cells assessed as cell growth at 10 uM after 48 hrs by sulforhodamine B assay relative to control; details: UO-31, 48 h, read-out: Activity
SK-MEL-28 = assay: Growth inhibition of human SK-MEL-28 cells assessed as cell growth at 10 uM after 48 hrs by sulforhodamine B assay relative to control; details: SK-MEL-28, 48 h, read-out: Activity
SF-539 = assay: Growth inhibition of human SF539 cells assessed as cell growth at 10 uM after 48 hrs by sulforhodamine B assay relative to control; details: SF-539, 48 h, read-out: Activity

SMILES: CN(C)CCNc1nc2c(c(=N)n1-c1ccccc1)c(=S)n(-c1ccccc1)c(=S)n2-c1ccccc1
- GI50 (MDA-MB-435): 1.9 µM
- TGI (MDA-MB-435): 4.7 µM
- CC50 (MDA-MB-435): 22.1 µM
- growth at 10 µM (NCI-H226): 82.3%
- growth at 10 µM (HOP-62): 6.19%
- growth at 10 µM (A549): 35.4%
- growth at 10 µM (SW-620 [1]): -59.1%
- GI50 (PC-3): 4 µM
- LC50 (50% lethal concentration) (PC-3): 51.9 µM
- TGI (PC-3): 17.9 µM
- growth at 10 µM (NCI-H322M): 58.5%
- growth at 10 µM (MDA-MB-231): -13%
- growth at 10 µM (MCF7): 17.9%
- GI50 (SK-MEL-2): 1.7 µM
- LC50 (SK-MEL-2): 6.7 µM
- TGI (SK-MEL-2): 3.4 µM
- GI50 (HCT-15): 1.4 µM
- LC50 (HCT-15): 17.7 µM
- TGI (HCT-15): 4.5 µM
- growth at 10 µM (OVCAR-3): -48.7%
- growth at 10 µM (COLO 205): 6.65%
- GI50 (SW-620 [2]): 2.1 µM
- LC50 (SW-620 [2]): 18.8 µM
- TGI (SW-620 [2]): 5.1 µM
- GI50 (U-251 [3]): 1.5 µM
- TGI (U-251 [3]): 3.4 µM
- CC50 (U-251 [3]): 7.8 µM
- growth at 10 µM (HCT-116): -22.1%
- GI50 (SNB-75): 2.4 µM
- LC50 (SNB-75): 31.9 µM
- TGI (SNB-75): 7.5 µM
- growth at 10 µM (SN12C): 52.3%
- growth at 10 µM (MOLT-4): 3.92%
- GI50 (CAKI-1): 3.6 µM
- LC50 (CAKI-1): 72 µM
- TGI (CAKI-1): 17.6 µM
- growth at 10 µM (CCRF-CEM): -8.26%
- growth at 10 µM (OVCAR-5): 63.1%
- GI50 (LOX IMVI): 1.4 µM
- LC50 (concentration killing 50% of cells) (LOX IMVI): 5.3 µM
- TGI (LOX IMVI): 2.7 µM
- GI50 (ACHN): 3.2 µM
- LC50 (ACHN): 34.1 µM
- TGI (ACHN): 11.3 µM
- growth at 10 µM (MDA-MB-468): -34.6%
- growth at 10 µM (U-251 [4]): 2.1%
- growth at 10 µM (RPMI-8226): -4.62%
- GI50 (DU-145): 5.3 µM
- TGI (DU-145): 18.8 µM
- CC50 (DU-145): 48.8 µM
- GI50 (OVCAR-4): 3.1 µM
- TGI (OVCAR-4): 10.8 µM
- GI50 (TK-10): 3.5 µM
- TGI (TK-10): 14.3 µM
- CC50 (TK-10): 48.8 µM
- growth at 10 µM (UO-31): 3.1%
- growth at 10 µM (SK-MEL-28): -100%
- growth at 10 µM (SF-539): -86.9%

SMILES: CCCCN(CCCC)CCCNc1nc2c(c(=N)n1-c1ccccc1)c(=S)n(-c1ccccc1)c(=S)n2-c1ccccc1
- GI50 (MDA-MB-435): 0.2 µM
- TGI (MDA-MB-435): 0.5 µM
- CC50 (MDA-MB-435): 1.5 µM
- growth at 10 µM (NCI-H226): -82.5%
- growth at 10 µM (HOP-62): -99.5%
- growth at 10 µM (A549): -38.4%
- growth at 10 µM (SW-620 [1]): -100%
- GI50 (PC-3): 0.6 µM
- LC50 (50% lethal concentration) (PC-3): 4.6 µM
- TGI (PC-3): 1.9 µM
- growth at 10 µM (NCI-H322M): -57.8%
- growth at 10 µM (MDA-MB-231): -89.1%
- growth at 10 µM (MCF7): -88%
- GI50 (SK-MEL-2): 1.7 µM
- LC50 (SK-MEL-2): 6.9 µM
- TGI (SK-MEL-2): 3.5 µM
- GI50 (HCT-15): 0.3 µM
- LC50 (HCT-15): 3.4 µM
- TGI (HCT-15): 1.1 µM
- growth at 10 µM (OVCAR-3): -100%
- growth at 10 µM (COLO 205): -74.1%
- GI50 (SW-620 [2]): 0.4 µM
- LC50 (SW-620 [2]): 3.7 µM
- TGI (SW-620 [2]): 1.4 µM
- GI50 (U-251 [3]): 0.3 µM
- TGI (U-251 [3]): 1.2 µM
- CC50 (U-251 [3]): 3.5 µM
- growth at 10 µM (HCT-116): -25%
- GI50 (SNB-75): 0.4 µM
- LC50 (SNB-75): 4.1 µM
- TGI (SNB-75): 1.6 µM
- growth at 10 µM (SN12C): -99.2%
- growth at 10 µM (MOLT-4): -55.8%
- GI50 (CAKI-1): 0.1 µM
- LC50 (CAKI-1): 3.1 µM
- TGI (CAKI-1): 0.8 µM
- growth at 10 µM (CCRF-CEM): -78.4%
- growth at 10 µM (OVCAR-5): -60.2%
- GI50 (LOX IMVI): 0.2 µM
- LC50 (concentration killing 50% of cells) (LOX IMVI): 0.6 µM
- TGI (LOX IMVI): 0.3 µM
- GI50 (ACHN): 0.5 µM
- LC50 (ACHN): 4.1 µM
- TGI (ACHN): 1.6 µM
- growth at 10 µM (MDA-MB-468): -89.9%
- growth at 10 µM (U-251 [4]): -100%
- growth at 10 µM (RPMI-8226): -53.4%
- GI50 (DU-145): 1.1 µM
- TGI (DU-145): 2.3 µM
- CC50 (DU-145): 4.8 µM
- GI50 (OVCAR-4): 0.6 µM
- TGI (OVCAR-4): 1.9 µM
- CC50 (OVCAR-4; read-out: LC50 (the source's name)): 4.4 µM
- GI50 (TK-10): 1.3 µM
- TGI (TK-10): 2.7 µM
- CC50 (TK-10): 5.6 µM
- growth at 10 µM (UO-31): -80.9%
- growth at 10 µM (SK-MEL-28): -100%
- growth at 10 µM (SF-539): -97.7%
